From patent publication US20250333388A1, “OXADIAZOLONE COMPOUNDS AND HERBICIDAL COMPOSITIONS AND USES THEREOF” (SHANDONG BINNONG TECHNOLOGY CO., LTD., priority 2023, published 2025)

Assays:
Assay type in all cases: in vivo
crabgrass = test: Test of herbicidal activity, post-seedling stem and leaf spray in greenhouse, crabgrass; conditions: for herbicidal activity against crabgrass compared with Control compounds A, B and C: at different doses, summary of Table 5; for Crabgrass (%) control effect: post-seedling stem and leaf spray
Protocol: (§1) Seeds of broadleaf weeds (abutilon, Solanum nigrum) or gramineous weeds (crabgrass, barnyard grass) were sown into nutrient soil in plastic cups, respectively, and then covered with soil, compacted, watered, and further cultivated in a greenhouse by conventional methods. The stems and leaves of the weeds were sprayed when the weeds reached the 2- to 3-leaf stage. The test compounds of the present application were dissolved in acetone respectively, followed by addition of Tween 80. The solution was diluted with a certain amount of water to a certain solubility, and then sprayed onto the plants using a spray tower. The test was repeated three times. After drying naturally in the shade, the plants were put in a greenhouse and managed according to conventional methods. The growth and development of weeds were observed, and the control effect of the test agent on weeds was checked visually periodically, which was expressed by 0-100%, with “0” representing no control effect, and “100%” representing complete killing or severe inhibition.

rice = test: Safety testing on rice, stem and leaf spray in greenhouse; conditions: for inhibitory effect on rice (crop safety): at different doses, as compared to Control compounds A, B, and C, summary of Table 6; for Rice (%) safety (crop damage): stem and leaf spray
Protocol: (§2) The seeds of corn and rice were sown into nutrient soil in plastic cups, respectively, then covered with soil, compacted, watered, and further cultivated in a greenhouse by conventional methods. The stems and leaves of the crops were sprayed when the crops reached the 2- to 3-leaf stage. The test compounds of the present application were dissolved in acetone, followed by addition of Tween 80. The solution was then diluted with a certain amount of water to a certain solubility, and sprayed onto the plants using a spray tower. The test was repeated three times. After drying naturally in the shade, the plants were put in a greenhouse and managed according to conventional methods. The growth and development of corn and rice were observed, and the safety of the test agent on corn and rice was checked visually periodically. A safety grading standard was represented by 0-100%, with “O” representing no damage to crops, and “100%” representing complete killing or severe inhibition of crops.

corn = test: Safety testing on corn, stem and leaf spray in greenhouse; conditions: for inhibitory effect on corn (crop safety): at different doses, as compared to Control compounds A, B, and C, summary of Table 6; for Corn (%) safety (crop damage): stem and leaf spray
Protocol: as §2

barnyard grass = test: Test of herbicidal activity, post-seedling stem and leaf spray in greenhouse, barnyard grass; conditions: for herbicidal activity against barnyard grass compared with Control compounds A, B and C: at different doses, summary of Table 5; for Barnyard grass (%) control effect: post-seedling stem and leaf spray
Protocol: as §1

Solanum nigrum = test: Test of herbicidal activity, post-seedling stem and leaf spray in greenhouse, Solanum nigrum; conditions: for herbicidal activity against Solamum nigrum compared with Control compounds A, B and C: at different doses, summary of Table 5; for Solanum nigrum (%) control effect: post-seedling stem and leaf spray
Protocol: as §1

abutilon = test: Test of herbicidal activity, post-seedling stem and leaf spray in greenhouse, abutilon; conditions: for herbicidal activity against abutilon compared with Control compounds A, B and C: at different doses, summary of Table 5; for Abutilon (%) control effect: post-seedling stem and leaf spray
Protocol: as §1

[1] = dose 300 g a.i/ha, 0 = no damage to crops, 100% = complete killing or severe inhibition
[2] = dose 300 g a.i/ha, 0 = no control effect, 100% = complete killing or severe inhibition

SMILES	Crabgrass (%) control effect (crabgrass; dose 37.5 g a.i/ha)	Crabgrass (%) control effect (crabgrass; dose 75 g a.i/ha)	Crabgrass (%) control effect (crabgrass; dose 150 g a.i/ha)	Crabgrass (%) control effect (crabgrass; dose 300 g a.i/ha)	Rice (%) safety (crop damage) (rice; dose 37.5 g a.i/ha)	Rice (%) safety (crop damage) (rice; dose 75 g a.i/ha)	Rice (%) safety (crop damage) (rice; dose 150 g a.i/ha)	Rice (%) safety (crop damage) (rice; dose 300 g a.i/ha)	Corn (%) safety (crop damage) (corn; dose 37.5 g a.i/ha)	Corn (%) safety (crop damage) (corn; dose 75 g a.i/ha)	Corn (%) safety (crop damage) (corn; dose 150 g a.i/ha)	Corn (%) safety (crop damage) (corn; [1])	Barnyard grass (%) control effect (barnyard grass; dose 37.5 g a.i/ha)	Barnyard grass (%) control effect (barnyard grass; dose 75 g a.i/ha)	Barnyard grass (%) control effect (barnyard grass; dose 150 g a.i/ha)	Barnyard grass (%) control effect (barnyard grass; dose 300 g a.i/ha)	Solanum nigrum (%) control effect (Solanum nigrum; dose 37.5 g a.i/ha)	Solanum nigrum (%) control effect (Solanum nigrum; dose 75 g a.i/ha)	Solanum nigrum (%) control effect (Solanum nigrum; dose 150 g a.i/ha)	Solanum nigrum (%) control effect (Solanum nigrum; dose 300 g a.i/ha)	other results
Cc1nn(Cc2c(S(C)(=O)=O)ccc(C(=O)c3c(C4CC4)nn(C)c3OC(=O)c3c(C)nn(C)c3Cl)c2Cl)c(=O)o1 [Compound 201]	45%	65%	80%	90%	0%	0%	0%	2%	0%	0%	0%	0%	55%	75%	95%	100%	55%	75%	95%	100%	herbicidal activity against crabgrass compared with Control compounds A, B and C (crabgrass): better herbicidal activities; inhibitory effect on rice (crop safety) (rice): no significant inhibitory effect; inhibitory effect on corn (crop safety) (corn): no significant inhibitory effect; herbicidal activity against barnyard grass compared with Control compounds A, B and C (barnyard grass): better herbicidal activities; herbicidal activity against Solamum nigrum compared with Control compounds A, B and C (Solanum nigrum): better herbicidal activities; herbicidal activity against abutilon compared with Control compounds A, B and C (abutilon): better herbicidal activities; Abutilon (%) control effect (abutilon; dose 37.5 g a.i/ha): 55%; Abutilon (%) control effect (abutilon; dose 75 g a.i/ha): 80%; Abutilon (%) control effect (abutilon; dose 150 g a.i/ha): 92%; Abutilon (%) control effect (abutilon; [2]): 98%
Cc1nn(C)c(O)c1C(=O)c1ccc(S(C)(=O)=O)cc1Cl [Control compound B, reference compound]	5%	15%	40%	45%	10%	20%	40%	55%	0%	0%	0%	2%	10%	25%	45%	55%	40%	50%	65%	70%	Abutilon (%) control effect (abutilon; dose 37.5 g a.i/ha): 45%; Abutilon (%) control effect (abutilon; dose 75 g a.i/ha): 55%; Abutilon (%) control effect (abutilon; dose 150 g a.i/ha): 75%; Abutilon (%) control effect (abutilon; [2]): 85%
CS(=O)(=O)c1ccc(C(=O)C2C(=O)CCCC2=O)c(Cl)c1CN1CCOCC1 [Control compound C, reference compound]	20%	55%	65%	70%	30%	55%	75%	85%	0%	0%	2%	5%	35%	60%	70%	75%	40%	50%	65%	85%	Abutilon (%) control effect (abutilon; dose 37.5 g a.i/ha): 45%; Abutilon (%) control effect (abutilon; dose 75 g a.i/ha): 55%; Abutilon (%) control effect (abutilon; dose 150 g a.i/ha): 70%; Abutilon (%) control effect (abutilon; [2]): 90%
CCS(=O)(=O)c1ccc(C(=O)c2c(C)nn(C)c2OC(=O)c2cc(C)nn2C)c(Cl)c1Cn1nc(C)oc1=O [Compound 224]	45%	65%	80%	84%	0%	0%	2%	5%	0%	0%	0%	2%	50%	70%	85%	88%	50%	70%	90%	93%	herbicidal activity against crabgrass compared with Control compounds A, B and C (crabgrass): better herbicidal activities; inhibitory effect on rice (crop safety) (rice): no significant inhibitory effect; inhibitory effect on corn (crop safety) (corn): no significant inhibitory effect; herbicidal activity against barnyard grass compared with Control compounds A, B and C (barnyard grass): better herbicidal activities; herbicidal activity against Solamum nigrum compared with Control compounds A, B and C (Solanum nigrum): better herbicidal activities; herbicidal activity against abutilon compared with Control compounds A, B and C (abutilon): better herbicidal activities; Abutilon (%) control effect (abutilon; dose 37.5 g a.i/ha): 55%; Abutilon (%) control effect (abutilon; dose 75 g a.i/ha): 80%; Abutilon (%) control effect (abutilon; dose 150 g a.i/ha): 90%; Abutilon (%) control effect (abutilon; [2]): 92%
